Patent US20250144125A1 (priority 2021, published 2025)
Like-named read-outs stand apart in the source and are kept apart here.

What was measured:
MERS-CoV (EMC strain) = assay: microbe, parasite or virus in culture; format: cell-based
[1] = tested on: measles virus (CC strain); assay: microbe, parasite or virus in culture; format: cell-based
[2] = tested on: tacaribe virus (TRVL11573 strain); assay: microbe, parasite or virus in culture; format: cell-based; conditions: read-out: Tacaribe virus EC50 TRVL 11573 strain
[3] = tested on: yellow fever virus (YFV 17D strain); assay: microbe, parasite or virus in culture; format: cell-based
[4] = tested on: influenza A (H1N1) virus (California/07/2009 strain); assay: microbe, parasite or virus in culture; format: cell-based; conditions: for EC50: read-out: EC50 California/07/2009 strain
[5] = tested on: human norovirus genogroup I NoV (Norwalk virus replicon) in HG23 cells; assay: Human norovirus antiviral assay, qRT PCR in HG23 NoV replicon cells; format: cell-based; conditions: for EC50: Norwalk virus
[6] = tested on: chikungunya virus (S27 strain); assay: microbe, parasite or virus in culture; format: cell-based
[7] = tested on: dengue virus 2 (New Guinea C strain); assay: microbe, parasite or virus in culture; format: cell-based
[8] = tested on: enterovirus-71 (Tainan/4643/98 strain); assay: organism not typed; format: cell-based
Vero cells = conditions: African green monkey
in vitro [9] = conditions: African green monkey
in vitro [10] = conditions: African green monkey, Tacaribe virus CC50 Vero
in vitro [11] = conditions: human
in vitro [12] = conditions: dog, CC50 MDCK
[13] = Cytotoxicity in the human norovirus replicon assay (HG23 cells); conditions: human, HG23 Nov replicon cells
MDCK cells = conditions: dog
[14] = tested on: enterovirus-71 (Tainan/4643/98 strain); assay: Secondary assay (virus yield reduction / neutral red CPE) against enterovirus-71 in Vero 76 cells; format: cell-based; conditions: for EC50: Vero 76, Neutral Red (Cytopathic effect/Toxicity); for EC90: Vero 76, Visual (Virus yield reduction)
[15] = Middle East respiratory syndrome-related coronavirus, Vero 76, read-out: MERS-CoV EC50 EMC strain
[16] = Measles morbillivirus, Vero 76, read-out: Measles EC50 CC strain
[17] = read-out: Measles EC50 CC strain
[18] = Mammarenavirus tacaribeense, Vero
[19] = Yellow fever virus, Huh-7, read-out: Yellow fever virus EC50 YFV 17D strain
[20] = HG23 Nov replicon cells, qRT PCR intracellular RNA, read-out: EC50 human norovirus
[21] = Chikungunya virus, Vero 76, read-out: EC50 chikungunya virus
[22] = Dengue virus, Huh-7, read-out: EC50 dengue virus 2
[23] = Vero 76, read-out: EC50 enterovirus-71
[24] = read-out: MERS-CoV CC50 Vero 76, Neutral Red, MERS-CoV screen
[25] = read-out: Yellow fever virus CC50 Huh7, Neutral Red, YFV screen
[26] = read-out: Yellow fever virus EC50 YFV 17D strain
[27] = read-out: Yellow fever virus CC50 Huh7, Visual, YFV screen
[28] = read-out: MERS-CoV EC50 EMC strain
[29] = read-out: EC50 chikungunya virus

Structure (SMILES)	EC50 (MERS-CoV (EMC strain); [15])	EC50 [1, 16]	EC50 [1, 17]	EC50 [2, 18]	EC50 [2]	EC50 [3, 19]	EC50 ([4]; Influenza A virus, H1N1, MDCK)	EC50 [5, 20]	EC50 [7, 22]	EC50 ([7]; read-out: EC50 dengue virus 2)	EC50 [8, 23]	CC50 (Vero 76 cells; [24])	CC50 (Vero cells)	CC50 (Huh7 cells; [25])	CC50 (in vitro [9]; MERS-CoV CC50 Vero 76)	CC50 (in vitro [9]; Measles CC50 Vero 76)	CC50 (in vitro [10])	CC50 (in vitro [11]; CC50)	CC50 at 3 days [13]	EC50 ([8]; read-out: EC50 enterovirus-71)	also measured
OC[C@H]1O[C@@H](n2ccc3c(C4CC4)ncnc32)[C@H](O)[C@@H]1O [3.1a, 6-Cyclopropyl-9-β-D-ribofuranosyl-7-deazapurine, reference compound]	> 100 µM	63 µM	56 µM	100 µM	> 100 µM	> 100 µM	> 100 µM	2.52 µM	32 µM	45 µM	> 100 µM	> 100 µM	> 100 µM	> 100 µM	> 100 µM	100 µM	100 µM	> 100 µM	> 100 µM		activity against influenza A (H1N1) in words [4]: not active; activity against chikungunya virus in words [6]: inactive; EC50 [6, 21]: > 100 µM; CC50 (Vero 76 cells; African green monkey): > 100 µM; CC50 (in vitro [11]; Yellow fever virus CC50 Huh7): 100 µM; CC50 (in vitro [12]): > 100 µM
C=C(OCC)c1ncnc2c1ccn2[C@@H]1O[C@H](CO)[C@@H](O)[C@H]1O [3.1b, 6-(1-Ethoxyvinyl)-9-β-D-ribofuranosyl-7-deazapurine]		> 100 µM	64 µM	44 µM	39 µM	> 28 µM					> 84 µM	86 µM	99 µM	22 µM	52 µM	> 100 µM	100 µM	8.5 µM	60.5 µM	90 µM	activity against MERS-CoV in words (MERS-CoV (EMC strain)): moderately active with low selectivity index; EC50 [3, 26]: > 22 µM; EC50 ([5]; HG23, read-out: EC50 human norovirus): 0.007 µM; CC50 (Vero 76 cells; African green monkey): 100 µM; CC50 (Huh7 cells; human): 8.6 µM; CC50 (in vitro [11]; Yellow fever virus CC50 Huh7): 28 µM
CC#Cc1ncnc2c1ccn2[C@@H]1O[C@H](CO)[C@@H](O)[C@H]1O [3.1d, 6-(Prop-1-yn-1-yl)-9-β-D-ribofuranosyl-7-deazapurine]		> 3.6 µM	> 3.4 µM	3.2 µM	2.2 µM	2.9 µM	3.2 µM	0.006 µM	0.32 µM	0.37 µM		3.3 µM	4.2 µM	1.8 µM	3.2 µM	3.6 µM	5.2 µM	3.6 µM	17.4 µM		EC50 [3, 26]: > 1.8 µM; EC50 [4]: 2.9 µM; activity against human norovirus in words [5]: low nanomolar activity and high selectivity; CC50 (Vero 76 cells; African green monkey): 3.4 µM; CC50 (Huh7 cells; human): 3.7 µM; CC50 (Huh7 cells; [27]): 12 µM; CC50 (MDCK cells): 4.9 µM; CC50 (in vitro [12]): 6.1 µM
CC(C)C#Cc1ncnc2c1ccn2[C@@H]1O[C@H](CO)[C@@H](O)[C@H]1O [3.1e, 6-(3-Methylbut-1-yn-1-yl)-9-β-D-ribofuranosyl-7-deazapurine]	11 µM	3.2 µM	2.4 µM	1.3 µM	1 µM	9.2 µM	3.2 µM	0.396 µM	3.2 µM	1.8 µM	4.2 µM	> 100 µM	7.3 µM		> 100 µM	34 µM	10 µM	24 µM	39.5 µM	4.3 µM	EC50 (MERS-CoV (EMC strain); [28]): 14 µM; EC50 [4]: 3 µM; EC50 [6, 21]: > 100 µM; EC50 [14]: 4 µM; EC90 [14]: 4.6 µM; CC50 (Huh7 cells; human): 21 µM; CC50 (in vitro [11]; Yellow fever virus CC50 Huh7): 28 µM
OC[C@H]1O[C@@H](n2ccc3c(C#Cc4ccc(F)cc4)ncnc32)[C@H](O)[C@@H]1O [3.1h, 6-((4-Fluorophenyl)ethynyl)-9-β-D-ribofuranosyl-7-deazapurine]	> 32 µM	6.2 µM	7.1 µM	24 µM	> 23 µM	2.2 µM		< 0.001 µM	> 32 µM	> 29 µM	> 39 µM	29 µM	23 µM	30 µM	32 µM	28 µM	24 µM		38.5 µM	> 46 µM	EC50 (MERS-CoV (EMC strain); [28]): > 29 µM; EC50 [3, 26]: 2.3 µM; activity against human norovirus in words [5]: low nanomolar activity and high selectivity; EC50 [6, 21]: > 36 µM; EC50 [6, 29]: 32 µM; CC50 (in vitro [9]; CC50): 36 µM; CC50 (in vitro [11]; Yellow fever virus CC50 Huh7): 32 µM
OC[C@H]1O[C@@H](n2ccc3c(C#Cc4ccc(Cl)cc4)ncnc32)[C@H](O)[C@@H]1O [3.1j, 6-((4-Chlorophenyl)ethynyl)-9-β-D-ribofuranosyl-7-deazapurine]	> 32 µM	3.2 µM	3.3 µM	> 8.6 µM	> 6.5 µM	1.2 µM	> 2.4 µM	0.022 µM	1.1 µM	1 µM	> 32 µM		6.5 µM	5 µM	32 µM	12 µM	8.6 µM	12 µM	38.6 µM	> 31 µM	EC50 [3, 26]: 0.8 µM; EC50 [4]: > 3.2 µM; EC50 [6, 21]: > 32 µM; EC50 [6, 29]: > 23 µM; CC50 (Huh7 cells; human): 13 µM; CC50 (Huh7 cells; [27]): 28 µM; CC50 (MDCK cells): 3.2 µM; CC50 (in vitro [12]): 2.4 µM
CCOC(=O)c1ccc(OCCC2CCN(c3ccc(C)nn3)CC2)cc1 [Pirodavir, pirodavir, reference compound]											0.4 µM									0.27 µM	EC50 [14]: 0.35 µM; EC90 [14]: 0.46 µM; CC50 (in vitro [9]; CC50): > 27 µM
